The record followed here is PubChem BioAssay AID1949 (Southern Research Institute, 2009).

The assay concerns M. tuberculosis H37Rv growth inhibition. In words: Confirmatory growth inhibition assay against Mycobacterium tuberculosis H37Rv, potency (AID 1949).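 Also: bacteria grown 7 days with compound before Alamar blue readout.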

SMILES strings stand for the structures. Converted amounts (≈) assume the structure as drawn. Results filed as inconclusive are left out. The source made the active and inactive calls. No rule for the calls is given here.

As to `O=C(Nc1ccc([N+](=O)[O-])cc1)c1nc[nH]c1C(=O)NCc1ccccc1`, the IC50 is 7.92 µg/mL (≈ 21.7 µM).

`CC(=O)Oc1cccc2ccc(/C=C/c3cccs3)nc12`: the IC50 is 1.14 µg/mL (≈ 3.86 µM).

As to `CCOC(=O)COc1ccc(S(=O)(=O)N2CCc3ccccc3C2)cc1`, the IC50 is 0.64 µg/mL (≈ 1.7 µM). With `O=C(OCc1ccccn1)c1ccc(COc2cccc3ccccc23)cc1`, the IC50 was 6.98 µg/mL (≈ 18.9 µM).

With `O=C(CCc1ccccc1)NC1C2CC3CC(C2)CC1C3` (stereo unspecified), the IC50 is 3.08 µg/mL (≈ 10.9 µM).

As to `O=C(Cc1ccc(Cl)cc1)Nc1nc2ccc(Cl)cc2s1`, the IC50 was 3.22 µg/mL (≈ 9.55 µM). Under `CC(C)Cc1nc2sc3c(c2c(=O)o1)CCCCC3` stands 5.69 µg/mL (≈ 20.5 µM); under `COc1cc(CNCc2cccnc2)ccc1OCc1ccc(Cl)cc1Cl`, 8.24 µg/mL (≈ 20.4 µM); under `O=C(NCC1COc2ccccc2O1)c1ccc(NC(=O)C2COc3ccccc3O2)cc1` (stereo unspecified), 1.94 µg/mL (≈ 4.35 µM). Under `N#Cc1c(NC(=S)NC(=O)c2ccc(Cl)cc2Cl)sc2c1CCCCC2` stands 3.36 µg/mL (≈ 7.92 µM). `O=C(C1CCCN1S(=O)(=O)c1ccc(Cl)cc1)N1CCOCC1` (stereo unspecified): the IC50 was 20 µg/mL (≈ 55.7 µM). Consider `COc1cccc(CN2CCC(N(CCc3ccccc3)Cc3ccccc3)CC2)c1OC`, for which the IC50 was 6.32 µg/mL (≈ 14.2 µM). Under `O=C(Nc1nccs1)c1cc(Cl)cc(Cl)c1` stands 10.2 µg/mL (≈ 37.2 µM); under `CC(=O)c1c(C)n([O-])c2cc(Cl)c(Cl)cc2[n+]1=O`, 5.48 µg/mL (≈ 19.1 µM); under `Cc1ccccc1NC(=O)c1c(NC(=O)CN2CCN(C)CC2)sc2c1CCC(C(C)(C)C)C2` (stereo unspecified), 40.2 µg/mL (≈ 83.3 µM). Under `COc1ccc(CNC(=O)c2c(N)nc3sc4c(c3c2C(F)(F)F)CCC4)cc1` stands 0.31 µg/mL (≈ 0.736 µM); under `Cc1cc2ncn(Cc3ccc(C(C)C)cc3)c2cc1C`, 0.91 µg/mL (≈ 3.27 µM); under `COc1ccc(-c2csc(-c3ccc(OC)c(OC)c3)n2)cc1C`, < 0.1 µg/mL. As for `O=[N+]([O-])c1ccccc1C1Nc2ccc(Cl)cc2C2C=CCC21` (stereo unspecified), the figure is 10.5 µg/mL (≈ 32.3 µM); as for `O=C(CCc1nc(-c2ccc(Cl)cc2)no1)OCc1ccc(Br)cc1`, > 50 µg/mL (inactive); as for `CCc1ccc(-c2nn(-c3ccccc3)cc2CO)cc1`, 5.36 µg/mL (≈ 19.3 µM). As for `COc1cc(C=O)ccc1OC(=O)c1cccs1`, the IC50 is 4.13 µg/mL (≈ 15.7 µM). `COc1ccc(-c2c(C)[nH]n3c(=O)c(Cc4ccccc4)c(C)nc23)cc1`: the IC50 is 1.28 µg/mL (≈ 3.56 µM). As for `CCN(CC)c1ccc(NC(=S)NCc2ccc(Cl)cc2)cc1`, the figure is 3.18 µg/mL (≈ 9.14 µM).

As to `O=C(NCCc1ccc(F)cc1)NC12CC3CC(CC(C3)C1)C2`, the IC50 was 0.21 µg/mL (≈ 0.664 µM). As to `O=C(COc1ccc(Cl)cc1)Nc1ccc(N2CCN(C(=O)c3ccco3)CC2)c(Cl)c1`, the IC50 was 1.67 µg/mL (≈ 3.52 µM).

`CCCc1cc2c(-c3ccccc3)cc(=O)oc2cc1OCC(=O)OC`: the IC50 was 5.24 µg/mL (≈ 14.9 µM). Take `CCn1cc(C(=O)O)c(=O)c2cc(F)c(N3CCN(C(=S)Nc4cc(C(F)(F)F)ccc4Cl)CC3)cc21`: the IC50 was 2.99 µg/mL (≈ 5.37 µM). With `CCN(CC)C(=S)NC(=O)c1ccc(Cl)cc1`, the IC50 is 1.43 µg/mL (≈ 5.28 µM).

Regarding `Cn1c(NC(=S)Nc2ccccc2)nc2ccccc21`, the half-inhibitory concentration (IC50) is 0.35 µg/mL (≈ 1.24 µM). As for `Oc1ccccc1Nc1nc(NCc2ccco2)c2ccccc2n1`, the IC50 is 5.36 µg/mL (≈ 16.1 µM). For the compound `Cc1ccc([N+](=O)[O-])cc1S(=O)(=O)Nc1cc(Br)c(O)c2ccccc12`, the IC50 was 11 µg/mL (≈ 25.1 µM). Under `Cc1ccc(C(=O)Nc2ccc(N3CCCC3)c(Cl)c2)c(C)c1` stands 6.72 µg/mL (≈ 20.4 µM).

As to `CCC(=O)NC(=S)Nc1ccc(NC(=O)c2cc(I)ccc2Cl)cc1`, the IC50 was 0.43 µg/mL (≈ 0.882 µM). With `CCCCc1ccc(NC(=O)COc2ccc(OCC)cc2)cc1`, the IC50 was 4.9 µg/mL (≈ 15 µM).

In the case of `S=C(NCCc1ccccc1)NCCc1ccc(Cl)cc1`, the IC50 was 9.95 µg/mL (≈ 31.2 µM). As to `O=C(Oc1ccccc1)c1ccc(COC(=O)c2ccco2)cc1`, the IC50 is 2.69 µg/mL (≈ 8.35 µM). Under `O=C(Nc1ccccc1OC(F)F)c1ccc([N+](=O)[O-])o1` stands 6.29 µg/mL (≈ 21.1 µM).

Take `CC(=O)NC(=S)NNC(=O)c1ccc(-c2ccccc2)cc1`: the IC50 is < 0.1 µg/mL. Take `O=C1c2ccccc2C(=O)c2c1nc1ccccn21`: the IC50 was 2.87 µg/mL (≈ 11.6 µM).

Take `CN1CCN(c2nc(N3CCCc4ccccc43)nc(N3CCCc4ccccc43)n2)CC1`: the IC50 was 5.33 µg/mL (≈ 12.1 µM). Under `CCOC(=O)c1c(CSc2ccccc2)n(-c2ccccc2)c2ccc(O)c(CN(C)C)c12` stands 1.4 µg/mL (≈ 3.04 µM); under `O=C(CCNc1cccc(Br)c1)c1cccs1`, 5.43 µg/mL (≈ 17.5 µM). Regarding `Cc1cc(OCCCn2ccnc2)cc(C(C)C)c1`, the IC50 was 6.24 µg/mL (≈ 24.2 µM). Consider `O=C(CCN1Cc2ccccc2C1)c1ccc2c(c1)OCCO2`, for which the IC50 was > 50 µg/mL (inactive). As to `Cc1ccc2c(C)nc(Nc3nc(CSc4nc5ccccc5s4)cc(=O)[nH]3)nc2c1`, the IC50 was 0.38 µg/mL (≈ 0.851 µM). As for `CCCC(=O)NC(=S)Nc1ccc(N2CCN(C(=O)c3cccs3)CC2)c(Cl)c1`, the figure is 0.61 µg/mL (≈ 1.35 µM).

Regarding `Cc1cc([N+](=O)[O-])ccc1NC(=O)Nc1cccc(C(F)(F)F)c1`, the IC50 was 0.24 µg/mL (≈ 0.707 µM). As for `COC(=O)c1c(NC(=O)c2cc3ccccc3oc2=O)sc2c1CCC2`, the IC50 was 4.29 µg/mL (≈ 11.6 µM). As to `COC(=O)CSc1nc2sc3c(c2c(=O)n1Cc1ccccc1)CCC(C(C)(C)C)C3` (stereo unspecified), the IC50 was > 50 µg/mL (inactive). Consider `O=[N+]([O-])c1ccc2nc(CSc3nc4ccccc4o3)[nH]c2c1`, for which the IC50 was 3.21 µg/mL (≈ 9.84 µM).

One may read the IC50 as the midpoint of a concentration-inhibition curve.
